Like-named read-outs stand apart in the source and are kept apart here.
Tests used:
[1] = tested on: VTE prevention in orthopedic surgery; conditions: cited from earlier work; for VTE prevention in orthopedic surgery vs enoxaparin 40 mg once daily: historical Phase 3 studies; for bleeding: Phase 2 orthopedic surgery studies and in combination with antiplatelets after an ACS
[2] = tested on: activated partial thromboplastin time (aPTT); assay: AXIOMATIC-TKR: aPTT and ratio to baseline; type: in vivo, human
Experimental: In some embodiments, aPTT is measured as follows: Plasma samples are incubated with Actin FS aPTT assay reagent containing a standard amount of phospholipid and contact activator (ellagic acid) which activates the intrinsic coagulation pathway. After incubating for 3 minutes, calcium chloride is added to initiate coagulation and formation of a fibrin clot is measured optically. The time to clot formation (measured in seconds) is reported as the Activated Partial Thromboplastin Time (aPTT). […]
(§1) PD analyses were performed on the PD analysis set, defined as subjects who had at least one valid blood sample drawn for PD. Descriptive statistics (N, mean, SD, median, range, CV (%) and IQ range) were used to summarize PD response at each nominal sampling time point by treatment group. Changes from baseline were summarized when applicable. PD response outside of limit of quantitation were not to be imputed and were to be noted in the summary statistics.

[3] = tested on: QT/QTc interval (cardiac repolarization); type: in vivo, human
Source text: The upper bound of two-sided 90% CI for the largest difference in mean change from baseline in QTc intervals (ΔQTc; […].
A total of 66 participants were enrolled in the study and randomly assigned to 1 of 4 possible treatment sequences. […].
Forty-five (68.2%) participants completed all 4 periods with study intervention as planned. […]

[4] = tested on: participants undergoing primary unilateral elective TKR surgery
[5] = tested on: cardiac potassium (hERG/IKr) channel; assay: In vitro cardiac potassium channel current inhibition; type: cell-based; conditions: concentrations that greatly exceed unbound plasma concentrations
[6] = tested on: participants with ischemic stroke or TIA; conditions: for Hemorragic Stroke Incidence Rate (n/N %) / Subjects With Hemorragic Stroke n: up to Day 21
Source text: The study enrolled participants ≥40 years of age who had ischemic stroke or TIA. Ischemic stroke was defined as a neurological deficit attributable to a non-lacunar, acute brain infarction detected by neuroimaging and relevant to the clinical symptoms and National Institutes of Health Stroke Score (NIHSS) ≤7 at the time of randomization. TIA was defined as acute onset neurological deficit attributable to focal ischemia of the brain by history or examination, with complete resolution of the deficit and no brain infarction on neuroimaging and ABCD score ≥6 or presence of motor symptoms. Evidence of relevant intracranial or cervical arterial atherosclerotic plaque, ulceration or thrombus in a feeding artery documented by imaging was required regardless of whether the index event was ischemic stroke or TIA, and all participants were required to have a Modified Rankin Score ≤3 before the index event. […] Following informed consent, participants received ASA 100 mg QD and a single loading dose of clopidogrel 300 mg if not already given as standard of care. […] A second MRI was performed on Day 90±6 days. All participants were required to remain on study treatment until the Day 90 MRI was performed up to Day 96.
From 27 Jan. […] The 200 mg BID arm was opened on 5 Jun.

thrombin generation = assay: AXIOMATIC-TKR: Thrombin Generation Assay (TGA): peak height, ETP, lag time; type: in vivo, human; conditions: Milvexian 25 mg QD; Day 10-14
Source text: (§2) (AXIOMATIC-TKR Phase II).
As used herein, “Thrombin Generation Assay (TGA)” is a global coagulation assay that evaluates the thrombogenic capacity of a plasma sample and has been proposed that it may better reflect prothrombotic or hemorrhagic states than conventional clotting assays. In the traditional TGA, coagulation of citrated plasma is initiated through the extrinsic pathway by adding tissue factor, phospholipids, and calcium. For this study, in the in-vitro thrombin generation assay (TGA) using human platelet-rich plasma, and a kaolin slurry was used instead to initiate coagulation through the contact activation pathway. Thrombin generation is continuously monitored through the product released by cleavage of a thrombin-specific fluorogenic substrate.
(§3) Assessment of the dose-response for the occurrence of any bleeding was a secondary objective.
as §1

clinical [7] = conditions: human, in vivo, po, median Tmax, healthy volunteers
clinical [8] = conditions: human, in vivo, po
Source text: as §2, §3

Factor XI Activity = Factor XI Activity (Homo sapiens, UniProt P03951); assay: AXIOMATIC-TKR: FXI clotting activity (FXI:c); type: in vivo; design: dose or concentration left out as unconfirmed
Experimental: As used herein, “Factor XI Clotting Activity” is determined utilizing an aPTT-based 1-stage clotting time assay. Serial dilutions of normal pooled plasma are mixed with FXI-depleted plasma and the clotting times are measured according to standard aPTT protocol, to establish a reference range. Subject test plasma is treated in the same way and compared with the reference plasma.
In some embodiments, the Factor XI Clotting Activity is measured as follows: Factor XI (FXI) activity is measured using a modification of the activated partial thromboplastin time (aPTT) using Actin FS (Siemens Healthcare) on the Siemens BCS® XP analyzer. […] The reference standard, at approximately 100%, is diluted by the BCS® XP analyzer in saline to generate pre-selected calibration levels of FXI. The calibration curve is plotted with FXI activity in percent (%) on the x-axis and clotting time in seconds on the y-axis. A log/lin regression curve fit is used. […] APTT reagent (Actin FS) is added and the mixture is incubated. Following incubation, calcium chloride is added to the mixture and the time to clot formation (measured optically) is compared to the time on the calibration curve. Samples are tested at the base dilution (1:10) prepared by the BCS® XP in saline.
as §3, §1

[9] = 40 mg QD subcutaneous, Day 1 2 h
[10] = 40 mg QD subcutaneous, Day 1 4 h
[11] = 40 mg QD subcutaneous, Day 2 Predose
[12] = 40 mg QD subcutaneous, Day 4 4 h
[13] = 40 mg QD subcutaneous, Day 4 Predose
[14] = 40 mg QD subcutaneous, Day 10-14

Factor XI Activity, sequence (P03951 19-625): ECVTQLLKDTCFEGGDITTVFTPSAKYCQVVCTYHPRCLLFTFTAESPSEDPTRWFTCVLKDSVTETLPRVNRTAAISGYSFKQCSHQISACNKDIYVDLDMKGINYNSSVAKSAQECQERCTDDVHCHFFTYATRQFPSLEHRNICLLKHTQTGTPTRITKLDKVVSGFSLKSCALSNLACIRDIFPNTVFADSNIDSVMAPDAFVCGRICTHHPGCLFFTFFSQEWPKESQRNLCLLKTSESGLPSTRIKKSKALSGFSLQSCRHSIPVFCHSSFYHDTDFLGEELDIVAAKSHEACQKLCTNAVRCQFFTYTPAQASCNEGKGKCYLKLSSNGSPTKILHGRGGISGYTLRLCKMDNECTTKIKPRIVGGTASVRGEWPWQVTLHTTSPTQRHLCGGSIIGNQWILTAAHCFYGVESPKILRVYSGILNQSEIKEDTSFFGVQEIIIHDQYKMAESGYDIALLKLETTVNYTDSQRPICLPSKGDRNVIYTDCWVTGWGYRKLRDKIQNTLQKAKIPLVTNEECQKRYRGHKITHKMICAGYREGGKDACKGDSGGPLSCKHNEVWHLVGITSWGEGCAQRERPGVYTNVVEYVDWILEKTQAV

COc1ccc(-n2nc(C(N)=O)c3c2C(=O)N(c2ccc(N4CCCCC4=O)cc2)CC3)cc1 [apixaban]
VTE prevention in orthopedic surgery vs enoxaparin 40 mg once daily ([1]; 2.5 mg twice daily): superior to enoxaparin
bleeding [1]: dose-related bleeding

C[C@@H]1CCC[C@H](n2cnc(-c3cc(Cl)ccc3-n3cc(Cl)nn3)cc2=O)c2cc(ccn2)-c2c(cnn2C(F)F)NC1=O [milvexian, (5R,9S)-9-(4-(5-chloro-2-(4-chloro-1H-1,2,3-triazol-1-yl)phenyl)-6-oxopyrimidin-1(6H)-yl)-2^1-(difluoromethyl)-5-methyl-2^1H-3-aza-1(4,2)-pyridina-2(5,4)-pyrazolacyclonaphan-4-one]
aPTT Measured Value, Med ([2]; 50 mg QD, Day 4 4 h): 52 s
changes over time in HR, RR interval, PR interval, or QRS width ([3]; 100 mg and 200 mg twice daily): No consistent or clinically relevant changes
treatment-emergent QTcF or QTcB >480 ms or changes from baseline >60 ms ([3]; 100 mg and 200 mg twice daily for 4 days): No treatment-emergent actual values of QTcF or QTcB >480 ms or changes from baseline >60 ms were observed
upper bound of two-sided 90% CI for the largest ΔΔQTc (QTcF) ([3]; supratherapeutic 200 mg twice daily as solution): less than 10 milliseconds
upper bound of two-sided 90% CI for the largest ΔΔQTc (QTcF) ([3]; therapeutic 100 mg twice daily as capsule): less than 10 milliseconds
QT/QTc interval prolongation ([3]; therapeutic (100 mg) and supratherapeutic (200 mg) doses, ICH E14): does not show evidence of QT/QTc interval prolongation of clinical or regulatory concern
dose-response relationship for bleeding events ([4]; AXIOMATIC-TKR or AXIOMATIC-SSP): No dose-response relationship was observed
fatal bleeding and symptomatic intracranial hemorrhage ([4]; Phase 2 studies): No fatal bleeding and no increases in symptomatic intracranial hemorrhage
Total VTE, participants n ([4]; milvexian BID dose regimens (N=518)): 63
inhibition of cardiac potassium (hERG/IKr) channel currents [5]: weak to moderate potency
Hemorragic Stroke Incidence Rate (n/N %) ([6]; 25 mg BID): 0 (0) %
Subjects With Hemorragic Stroke n ([6]; 25 mg BID): 0 (0)
New Ischemic Stroke, MI and All Cause Death: Subjects With Event n ([6]; 25 mg BID, up to Day 90): 15
Hemorragic Stroke Incidence Rate (n/N %) ([6]; 25 mg QD): 0 (0) %
Subjects With Hemorragic Stroke n ([6]; 25 mg QD): 0 (0)
Ischemic Stroke (n/N %) ([6]; 25 mg QD, up to Day 90): 4.6%
New Ischemic Stroke, MI and All Cause Death: Subjects With Event (n/N %) ([6]; 25 mg QD, up to Day 90): 5.2%
HR for clinical ischemic strokes vs placebo ([6]; 25 mg twice daily, 95% CI 0.36-1.30): 0.69
Hemorragic Stroke Incidence Rate (n/N %) ([6]; 50 mg BID): 0 (0) %
Subjects With Hemorragic Stroke n ([6]; 50 mg BID): 0 (0)
Hemorragic Stroke Incidence Rate (n/N %) ([6]; 100 mg BID): 0 (0) %
Subjects With Hemorragic Stroke n ([6]; 100 mg BID): 0 (0)
New Ischemic Stroke, MI and All Cause Death: Subjects With Event (n/N %) ([6]; 100 mg BID, up to Day 90): 5.2%
rate of early treatment discontinuation ([6]; 200 mg BID, primarily due to AEs): 31.6%
Hemorragic Stroke Incidence Rate (n/N %) ([6]; 200 mg BID): 0 (0) %
Subjects With Hemorragic Stroke n ([6]; 200 mg BID): 0 (0)
New Ischemic Stroke, MI and All Cause Death: Subjects With Event (n/N %) ([6]; 200 mg BID, up to Day 90): 9.4%
ETP Lag Time, Measured Value, Med (thrombin generation): 10.33 min
Tmax (clinical [7]; once daily): 2 to 3 h
Tmax (clinical [7]; twice daily): ~3 h
Tmax at 96 h (clinical [8]; Day 4, 25 mg and 100 mg twice daily): ~2 h
Tmax at 96 h (clinical [8]; Day 4, 50 mg and 200 mg once daily): ~4 h

COc1c(N2C[C@@H]3CCCN[C@@H]3C2)c(F)cc2c(=O)c(C(=O)O)cn(C3CC3)c12 [moxifloxacin, reference compound]
participants with treatment-emergent change from baseline of QTcB >60 ms ([3]; single dose of 400 mg): 1.7%

O=C(NC[C@H]1CN(c2ccc(N3CCOCC3=O)cc2)C(=O)O1)c1ccc(Cl)s1 [rivaroxaban]
VTE prevention in orthopedic surgery vs enoxaparin 40 mg once daily ([1]; 10 mg once daily): superior to enoxaparin
bleeding [1]: dose-related bleeding

enoxaparin
Factor XI Activity Measured Value, Mean (Factor XI Activity; Day 1 4 h): 1.06 fraction of 1
Factor XI Activity Measured Value, Med (Factor XI Activity; Day 1 4 h): 1.07 fraction of 1
Factor XI Activity Measured Value, Mean (Factor XI Activity; Day 10-14): 1.36 fraction of 1
Factor XI Activity Measured Value, Med (Factor XI Activity; Day 10-14): 1.39 fraction of 1
aPTT Measured Value, Mean [2, 9]: 37.03 s
aPTT Measured Value, Med [2, 9]: 27.5 s
aPTT Measured Value, Mean [2, 10]: 29.14 s
aPTT Measured Value, Med [2, 10]: 27.75 s
aPTT Measured Value, Mean [2, 11]: 28.11 s
aPTT Measured Value, Med [2, 11]: 27.4 s
aPTT Measured Value, Mean [2, 12]: 27.37 s
aPTT Measured Value, Med [2, 12]: 26.1 s
aPTT Measured Value, Mean [2, 13]: 26.03 s
aPTT Measured Value, Med [2, 13]: 25.8 s
aPTT Measured Value, Mean [2, 14]: 27.8 s
aPTT Measured Value, Med [2, 14]: 25.9 s
Total VTE, participants n ([4]; 40 mg QD subcutaneous (N=252)): 54
total venous thromboembolism (VTE) rate ([4]; 40 mg once daily subcutaneous): 21.4%

Reference: patent US20260284049A1 (BRISTOL-MYERS SQUIBB COMPANY, priority 2023, published 2026)
